Reference: article PMC8351955, “Targeting Mycobacterium tuberculosis response to environmental cues for the development of effective antitubercular drugs” (PLoS Biology, 2021)
Where “and” joins values, the source holds several entries; their conditions need not be identical. Identical values can stand only once.

Assays:
[1] = system: J774 cells; experiment: Intracellular drug accumulation assay in J774 cells (LC-MS); conditions: 24 hours
[2] = Mouse plasma stability; type: in vitro ADME; conditions: 5-h incubation
[3] = Mouse liver microsomal stability; type: in vitro ADME; conditions: mouse liver microsomes; read-out: half-life (t1/2) in mouse liver microsomes
Procedure: Assays examining mouse and human liver microsomal stability, kinetic aqueous solubility, mouse and human plasma protein binding and stability, and human cytochrome P450 inhibition characteristics of the compounds were run by BioDuro (San Diego, CA), using standard protocols as previously described [37]. hERG inhibition assays were also performed by BioDuro.

[4] = Human liver microsomal stability; type: in vitro ADME; conditions: human liver microsomes; read-out: half-life (t1/2) in human liver microsomes
[5] = system: Mtb; experiment: Mtb growth assay in standard 7H9 medium (OD600); conditions: for OD600: Fig. 2F
Source text: Bacterial growth was tracked by measuring OD600 every 3 days for 12 days. […] Bacterial growth was tracked by measurement of OD600 every 3 days over 12 days.

[6] = system: Mtb growth in cholesterol media; set-up: method as in PubChem AID 1259343; conditions: ref PubChem AID 1259343; cited from earlier work
[7] = system: CYP3A4/5; experiment: Human cytochrome P450 inhibition, 3A4/5; type: in vitro ADME; conditions: read-out: % inhibition of CYP 3A4/5
[8] = system: macrophage phagosomal [Cl−] in BMDMs; experiment: Phagosomal maturation assay, BAC/AF594 beads (Cl− readout); type: cell-based, mouse
Procedure: Carboxyfluorescein (pH readout), DQ-BSA/Alexa Fluor 594 (AF594) (proteolysis readout), and BAC/AF594 (Cl^− readout) beads were generated essentially as previously described, except that 10,10′-Bis[3-carboxylpropyl]-9,9′-biacridinium dinitrate di-NHS ester (BAC-SE) was purchased from emp Biotech LLC. BMDMs were isolated from C57BL/6J mice (The Jackson Laboratory) and maintained as described above. […] Assay buffer consisted of PBS (pH 7.2), supplemented with 5% FBS, 5 mM dextrose, 1 mM CaCl2, 2.7 mM KCl, and 0.5 mM MgCl2 in the case of assays with the carboxyfluorescein or DQ-BSA/AF594 beads. For assays with the BAC/AF594 beads, assay buffer consisted of PBS (pH 7.2), supplemented with 5% FBS, 5 mM dextrose, 1 mM calcium acetate, 1.35 mM K2SO4, and 0.5 mM MgSO4 [9]. Sensor beads at approximately 2 to 5 beads/macrophage in appropriate assay buffer were finally added, with data acquisition on a Biotek Synergy H1 microplate reader with bottom read signal detection started within 2 to 3 minutes of bead addition. Excitation/emission wavelengths were 450 nm/520 nm and 490 nm/520 nm for carboxyfluorescein, 490 nm/520 nm for DQ-BSA, 365 nm/505 nm for BAC, and 590 nm/617 nm for AF594. Each experiment was run with a total of 3 to 5 replicate wells/condition, with temperature maintained at 37°C throughout the assay. Wells were read every 2 minutes for 2 hours for the carboxyfluorescein bead assays, every 2 minoutes for 4 hours for the DQ-BSA/AF594 bead assays, and every 1 minute for 2 hours for the BAC/AF594 bead assays. Analyses of the results were performed as previously described.

CCSc1ncc(CN2CCN(c3nc4ccccc4o3)CC2)cn1 [C6, 2-(4-((2-(ethylthio)pyrimidin-5-yl)methyl)piperazin-1-yl)benzo[d]oxazole]
Intracellular accumulation in J774 cells [1]: dose-dependent accumulation | remaining at 5 h [2]: > 99.9% | half-life [3]: 48.5 min | half-life [4]: 37.6 min | Effect on Mtb growth in standard 7H9 media ([5]; 10 μM, OD600 over 12 days): no effect | OD600 ([5]; day 3, average): 0.1933 | OD600 ([5]; day 3, individual replicates): 0.2 (2×) and 0.18 | OD600 ([5]; day 6, average): 0.3733 | OD600 ([5]; day 6, individual replicates): 0.38 (2×) and 0.36 | OD600 ([5]; day 9, average): 0.4933 | OD600 ([5]; day 9, individual replicates): 0.5 (2×) and 0.48 | OD600 ([5]; day 12, average): 0.6333 | OD600 ([5]; day 12, individual replicates): 0.64 (2×) and 0.62 | Call in screen for inhibition of Mtb growth in cholesterol media [6]: positive for growth inhibition | inhibition at 10 µM [7]: < 1% | Effect on increase in [Cl−] during macrophage phagosomal maturation ([8]; 10 μM, uninfected BMDMs): no significant effect | AF594/BAC fluorescence, Average ([8]; Time 0 minutes): 0.6122 | AF594/BAC fluorescence, replicates ([8]; Time 0 minutes): 0.5839 and 0.6162 and 0.6235 and 0.6146 and 0.6227 | AF594/BAC fluorescence, Average ([8]; Time 1 minutes): 0.5459 | AF594/BAC fluorescence, replicates ([8]; Time 1 minutes): 0.5421 and 0.5573 (2×) and 0.546 and 0.5266 | AF594/BAC fluorescence, Average ([8]; Time 2 minutes): 0.5408 | AF594/BAC fluorescence, replicates ([8]; Time 2 minutes): 0.5319 and 0.5419 and 0.5358 and 0.5431 and 0.5513 | AF594/BAC fluorescence, Average ([8]; Time 3 minutes): 0.5344 | AF594/BAC fluorescence, replicates ([8]; Time 3 minutes): 0.5344 and 0.5364 and 0.543 and 0.5118 and 0.5462 | AF594/BAC fluorescence, Average ([8]; Time 4 minutes): 0.5424 | AF594/BAC fluorescence, replicates ([8]; Time 4 minutes): 0.5625 and 0.5432 and 0.5412 and 0.5272 and 0.538 | AF594/BAC fluorescence, Average ([8]; Time 5 minutes): 0.5329 | AF594/BAC fluorescence, replicates ([8]; Time 5 minutes): 0.545 and 0.5366 and 0.532 and 0.5179 and 0.5328 | AF594/BAC fluorescence, Average ([8]; Time 7 minutes): 0.5364 | AF594/BAC fluorescence, replicates ([8]; Time 7 minutes): 0.548 and 0.5294 and 0.5467 and 0.5183 and 0.5395 | AF594/BAC fluorescence, Average ([8]; Time 9 minutes): 0.5382 | AF594/BAC fluorescence, replicates ([8]; Time 9 minutes): 0.5413 and 0.5472 and 0.5302 and 0.5353 and 0.5369 | AF594/BAC fluorescence, Average ([8]; Time 11 minutes): 0.548 | AF594/BAC fluorescence, replicates ([8]; Time 11 minutes): 0.555 and 0.5414 and 0.5741 and 0.5202 and 0.5492 | AF594/BAC fluorescence, Average ([8]; Time 13 minutes): 0.5691 | AF594/BAC fluorescence, replicates ([8]; Time 13 minutes): 0.5666 and 0.5688 and 0.5877 and 0.5543 and 0.5682 | AF594/BAC fluorescence, Average ([8]; Time 15 minutes): 0.5821 | AF594/BAC fluorescence, replicates ([8]; Time 15 minutes): 0.5799 and 0.5786 and 0.5955 and 0.5676 and 0.5889 | AF594/BAC fluorescence, Average ([8]; Time 17 minutes): 0.5935 | AF594/BAC fluorescence, replicates ([8]; Time 17 minutes): 0.5853 and 0.6046 and 0.6099 and 0.5629 and 0.6045 | AF594/BAC fluorescence, Average ([8]; Time 19 minutes): 0.603 | AF594/BAC fluorescence, replicates ([8]; Time 19 minutes): 0.5752 and 0.6161 and 0.6348 and 0.5964 | AF594/BAC fluorescence, Average ([8]; Time 21 minutes): 0.6193 | AF594/BAC fluorescence, Average ([8]; Time 23 minutes): 0.618 | AF594/BAC fluorescence, Average ([8]; Time 25 minutes): 0.6229 | AF594/BAC fluorescence, Average ([8]; Time 27 minutes): 0.6239 | AF594/BAC fluorescence, Average ([8]; Time 29 minutes): 0.6453 | AF594/BAC fluorescence, Average ([8]; Time 31 minutes): 0.6313 | AF594/BAC fluorescence, Average ([8]; Time 33 minutes): 0.6482 | AF594/BAC fluorescence, Average ([8]; Time 35 minutes): 0.6392 | AF594/BAC fluorescence, Average ([8]; Time 37 minutes): 0.6481 | AF594/BAC fluorescence, Average ([8]; Time 39 minutes): 0.6418 | AF594/BAC fluorescence, Average ([8]; Time 41 minutes): 0.6532 | AF594/BAC fluorescence, Average ([8]; Time 43 minutes): 0.6524 | AF594/BAC fluorescence, Average ([8]; Time 45 minutes): 0.6458 | AF594/BAC fluorescence, Average ([8]; Time 46 minutes): 0.6438 | AF594/BAC fluorescence, Average ([8]; Time 47 minutes): 0.6518 | AF594/BAC fluorescence, Average ([8]; Time 48 minutes): 0.6423 | AF594/BAC fluorescence, Average ([8]; Time 49 minutes): 0.6502 | AF594/BAC fluorescence, Average ([8]; Time 50 minutes): 0.6427 | AF594/BAC fluorescence, Average ([8]; Time 51 minutes): 0.6412 | AF594/BAC fluorescence, Average ([8]; Time 52 minutes): 0.6437 | AF594/BAC fluorescence, Average ([8]; Time 53 minutes): 0.6415 | AF594/BAC fluorescence, Average ([8]; Time 54 minutes): 0.6535 | AF594/BAC fluorescence, Average ([8]; Time 55 minutes): 0.646 | AF594/BAC fluorescence, Average ([8]; Time 56 minutes): 0.6496 | AF594/BAC fluorescence, Average ([8]; Time 57 minutes): 0.6559 | AF594/BAC fluorescence, Average ([8]; Time 58 minutes): 0.6523 | AF594/BAC fluorescence, Average ([8]; Time 59 minutes): 0.6473 | AF594/BAC fluorescence, Average ([8]; Time 60 minutes): 0.6412 | AF594/BAC fluorescence, Average ([8]; Time 61 minutes): 0.6401 | AF594/BAC fluorescence, Average ([8]; Time 62 minutes): 0.6424 | AF594/BAC fluorescence, Average ([8]; Time 63 minutes): 0.6429 | AF594/BAC fluorescence, Average ([8]; Time 64 minutes): 0.6497 | AF594/BAC fluorescence, Average ([8]; Time 65 minutes): 0.6542 | AF594/BAC fluorescence, Average ([8]; Time 66 minutes): 0.6415 | AF594/BAC fluorescence, Average ([8]; Time 67 minutes): 0.656 | AF594/BAC fluorescence, Average ([8]; time 6 minutes): 0.5344 | AF594/BAC fluorescence, replicates ([8]; time 6 minutes): 0.55 and 0.5263 and 0.5408 and 0.5119 and 0.5432 | AF594/BAC fluorescence, Average ([8]; time 8 minutes): 0.5381 | AF594/BAC fluorescence, replicates ([8]; time 8 minutes): 0.5319 and 0.5466 and 0.5386 and 0.538 and 0.5353 | AF594/BAC fluorescence, Average ([8]; time 10 minutes): 0.5471 | AF594/BAC fluorescence, replicates ([8]; time 10 minutes): 0.5453 and 0.5491 and 0.5758 and 0.5298 and 0.5354 | AF594/BAC fluorescence, Average ([8]; time 12 minutes): 0.5563 | AF594/BAC fluorescence, replicates ([8]; time 12 minutes): 0.5501 and 0.57 and 0.5742 and 0.5198 and 0.5673 | AF594/BAC fluorescence, Average ([8]; time 14 minutes): 0.5706 | AF594/BAC fluorescence, replicates ([8]; time 14 minutes): 0.5628 and 0.5864 and 0.5841 and 0.542 and 0.5776 | AF594/BAC fluorescence, Average ([8]; time 16 minutes): 0.5854 | AF594/BAC fluorescence, replicates ([8]; time 16 minutes): 0.5806 and 0.5704 and 0.6264 and 0.5665 and 0.5832 | AF594/BAC fluorescence, Average ([8]; time 18 minutes): 0.5961 | AF594/BAC fluorescence, replicates ([8]; time 18 minutes): 0.5808 and 0.5961 and 0.6277 and 0.5767 and 0.5992 | AF594/BAC fluorescence, Average ([8]; time 20 minutes): 0.6147 | AF594/BAC fluorescence, replicates ([8]; time 20 minutes): 0.6043 | AF594/BAC fluorescence, Average ([8]; time 22 minutes): 0.6194 | AF594/BAC fluorescence, Average ([8]; time 24 minutes): 0.6332 | AF594/BAC fluorescence, Average ([8]; time 26 minutes): 0.631 | AF594/BAC fluorescence, Average ([8]; time 28 minutes): 0.638 | AF594/BAC fluorescence, Average ([8]; time 30 minutes): 0.6338 | AF594/BAC fluorescence, Average ([8]; time 32 minutes): 0.6382 | AF594/BAC fluorescence, Average ([8]; time 34 minutes): 0.6489 | AF594/BAC fluorescence, Average ([8]; time 36 minutes): 0.6508 | AF594/BAC fluorescence, Average ([8]; time 38 minutes): 0.652 | AF594/BAC fluorescence, Average ([8]; time 40 minutes): 0.6508 | AF594/BAC fluorescence, Average ([8]; time 42 minutes): 0.6499 | AF594/BAC fluorescence, Average ([8]; time 44 minutes): 0.6458
